The target in this test is T1, MAGE-A11:PCF11 interaction (GST-MAGE-A11 MHD and FAM-PCF11_4) (Homo sapiens, UniProt P43364).
T1 construct: GST-MAGE-A11 MHD (human MAGE-A11 MHD amino acid 218-429); made in house; host or cells: E. coli BL21(DE3)
T1 sequence (P43364 218-429): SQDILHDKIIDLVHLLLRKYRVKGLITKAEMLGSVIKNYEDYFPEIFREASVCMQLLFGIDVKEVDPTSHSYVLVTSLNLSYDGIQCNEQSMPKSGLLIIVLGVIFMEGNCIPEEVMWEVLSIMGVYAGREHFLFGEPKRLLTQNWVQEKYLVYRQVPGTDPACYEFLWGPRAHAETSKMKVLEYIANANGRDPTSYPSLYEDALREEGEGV
Put plainly: TR-FRET dose response test of compounds for disruption of MAGE-A11:PCF11 binding. The method, then: The TR-FRET assay buffer with a formula of 50 mM Tris pH 7.5, 20 mM MgCl2, 0.1 mg/ml BSA and 1 mM DTT was freshly prepared before each experiment. All TR-FRET assays were performed in black 384-well plates with 20 µl/well assay volume in the TR-FRET assay buffer at room temperature (~25 °C). All peptides or compounds were solubilized in DMSO. To test the competitive activity of peptides or compounds against the interaction between GST-MAGE-A11 MHD and FAM-PCF11_4 peptide, 10 µl/well peptide or compound at specified concentration was dispensed into a black 384-well low volume plate, followed by 5 µl/well FAM-PCF11_4 (800 nM), 5 µl/well Tb-anti-GST (20 nM), and GST-MAGE-A11 MHD (20 nM). The assay components in each well was then mixed by shaking the plate on an IKA MTS 2/4 digital microtiter plate shaker (IKA Works; Wilmington, NC, USA) for 1 min. The plate was further centrifuged in an Eppendorf 5810 centrifuge with an A-4-62 swing-bucket rotor (Eppendorf AG, Hamburg, Germany) at 201 g for 30 s. The plate was then incubated for 90 min with a lid to avoid light exposure to the assay components. After incubation, the fluorescent emission signals at 520 nm and 490 nm channels of individual wells were measured with a PHERAstar FS plate reader (BMG Labtech; Durham, NC, USA) by using a 340 nm excitation filter, 100 µs delay time, and 200 µs integration time. The TR-FRET fluorescence emission ratio (TR-FRET signal) for each well was presented as 10,000 × 520 nm/490 nm, which was used directly for curve fitting, or further converted to %Inhibition based on the respective positive and negative controls. The graphic software GraphPad Prism 4.81 (GraphPad Software; La Jolla, CA, USA) was used to generate curves and derive IC50 values of tested peptides or compounds, if applicable.
TR-FRET screen for identifying MAGE-A11 small molecule inhibitors was performed as follows. The primary one-concentration screening and subsequent 10 or 20-concentration dose-response tests were accomplished with an automated High Throughput Screening system (HighRes Biosolutions, Beverly, MA)[30]. In the primary screening, 15 µl/well FAM-PCF11_4 (267 nM) was first dispensed with a Multidrop Combi Reagent Dispenser (Thermo Fisher Scientific, Waltham, MA) to black 384-well low-volume assay plates. The plates were spun down with a Velocity11 VSpin microplate centrifuge (Agilent Technologies, Santa Clara, CA). In total, 30 nl/well of 10 mM compound/DMSO solutions, or DMSO alone, were transferred from compound plates (the St. Jude FDA drug and bioactive library, Drug-like library and Lead-like library) or a control plate to the assay plates with a Pin Tool (V&P Scientific, San Diego, CA). The compounds were arrayed in columns 3–12 and columns 15–24 of compound plates. The controls were arrayed in columns 1, 2, 13, and 14 of a compound plate. In all, 5 µl/well Tb-anti-GST (20 nM) and GST-MAGE-A11 (20 nM) or 5 µl/well Tb-anti-GST (20 nM) alone was then dispensed to selected wells with a Multidrop Combi Reagent Dispenser. The final assay volume was 20 µl/well. The final DMSO concentration was 0.25% (v/v) (0.1% (v/v) from the FAM-PCF11_4 DMSO stock solution and 0.15% (v/v) from the compound-DMSO solution or the DMSO for the control wells). The final tested compound concentration was 15 µM. The final FAM-PCF11_4 concentration was 200 nM and the final Tb-anti-GST concentration was 5 nM. The final GST-MAGE-A11 concentration was 5 nM except for those selected positive control wells in which GST-MAGE-A11 was not presented. The plates were then shaken with a big bear shaker (Big Bear Automation, Santa Clara, California) and spun down with the Velocity11 VSpin microplate centrifuge for 20 s. The plates were then incubated at room temperature in a Liconic incubator (Liconic US, Woburn, MA) for 90 min. The TR-FRET signals for individual wells were measured with a PHERAstar FS plate reader. The %Inhibition of each tested inhibitor was calculated by using Eq. 1.
(In general: In TR-FRET formats the signal depends on donor and acceptor labels being close together.)

[1] abbreviates: Dose response TR-FRET screening of nine scaffold groups against MAGE-A11:PCF11, read-out: consensus IC50.
[2] abbreviates: Supplementary Data 3, 59 quinoline compounds, read-out: TR-FRET IC50.

Where two headings read alike, the source gives them in different places.

Here are results for 27 compounds from publication PMC7529893, “Structural basis for substrate recognition and chemical inhibition of oncogenic MAGE ubiquitin ligases” (Nature Communications, 2020).

What is called IC50 is the concentration that inhibits the measured activity by half.

`FC(F)(F)c1cccc(Cc2ccc3c(NCCCNCc4cccc5c4OCO5)ccnc3c2)c1` [SJ000311300-1]: under setting [1], the IC50 stood at 12.8 µM.

On to `COc1ccc(F)cc1CNCCCNc1ccnc2cc(Cc3cccc(C(F)(F)F)c3)ccc12` [SJ000311301-2], for which the IC50 under setting [1] is 22.1 µM. In the case of `COc1cccc(CNCCCNc2ccnc3cc(Cc4ccc(C#N)cc4)ccc23)c1O` [SJ000311303-1], the IC50 under setting [1] turned out to be 51 µM. With `N#Cc1ccc(Cc2ccc3c(NCCCNCc4cccc5c4OCO5)ccnc3c2)cc1` [SJ000311304-1], under setting [1], the IC50 was found to be 66 µM. In the case of `c1ccc(Cc2ccc3c(NCCCNCc4ccco4)ccnc3c2)cc1` [SJ000311306-2, C(CNCc1occc1)CNc2ccnc3cc(Cc4ccccc4)ccc23], the IC50 under setting [2] was 32.2 µM.

With `c1ccc(Cc2ccc3c(NCCCNCc4cccc5c4OCO5)ccnc3c2)cc1` [SJ000311308-1], the half-inhibitory concentration (IC50) under setting [1] worked out at 46.1 µM. Turning to `COc1ccc(F)cc1CNCCCNc1ccnc2cc(Cc3ccccc3)ccc12` [SJ000311309-1], the IC50 under setting [1] was found to be 18.3 µM. With `COc1cc(Cc2ccc3c(NCCCNCc4cccc(OC)c4O)ccnc3c2)cc(OC)c1` [SJ000311311-1], the IC50 under setting [1] is 33.6 µM. Consider `COc1cc(Cc2ccc3c(NCCCNCc4cccc5c4OCO5)ccnc3c2)cc(OC)c1` [SJ000311312-1], for which, under setting [1], the IC50 came to 31.3 µM.

Take `COc1cc(Cc2ccc3c(NCCCNCc4cc(F)ccc4OC)ccnc3c2)cc(OC)c1` [SJ000311313-1]: the IC50 under setting [1] came to 33.8 µM. Consider `Clc1cccc(Cl)c1Cc1ccc2c(NCCCNCc3ccco3)ccnc2c1` [SJ000311314-1, Clc1cccc(Cl)c1Cc2ccc3c(NCCCNCc4occc4)ccnc3c2], for which the IC50 under setting [2] turned out to be 38.4 µM.

As for `COc1cccc(CNCCCNc2ccnc3cc(Cc4c(Cl)cccc4Cl)ccc23)c1O` [SJ000311315-1], the IC50 under setting [1] came to 13.8 µM. In the case of `Clc1cccc(Cl)c1Cc1ccc2c(NCCCNCc3cccc4c3OCO4)ccnc2c1` [SJ000311316-1], the concentration for half-maximal inhibition (IC50) under setting [1] was 11 µM. On the same count and under the same terms, the result for `COc1ccc(F)cc1CNCCCNc1ccnc2cc(Cc3c(Cl)cccc3Cl)ccc12` [SJ000311317-1] reads 12.2 µM. With `Cc1cc(C)cc(Cc2ccc3c(NCCCNCc4ccco4)ccnc3c2)c1` [SJ000311318-2, Cc1cc(C)cc(Cc2ccc3c(NCCCNCc4occc4)ccnc3c2)c1], the IC50 under setting [2] is over 70 µM. For the compound `COc1cccc(CNCCCNc2ccnc3cc(Cc4cc(C)cc(C)c4)ccc23)c1O` [SJ000311319-1], the IC50 under setting [1] was 23.6 µM. The same measure, in the same setting: the result for `Cc1cc(C)cc(Cc2ccc3c(NCCCNCc4cccc5c4OCO5)ccnc3c2)c1` [SJ000311320-1] reads 16.3 µM; that for `COc1ccc(F)cc1CNCCCNc1ccnc2cc(Cc3cc(C)cc(C)c3)ccc12` [SJ000311321-1], 9.04 µM. Still for that read-out and setting: the result for `COc1cccc(CNCCCNc2ccnc3cc(Cc4ccc(F)cc4Cl)ccc23)c1O` [SJ000311323-1] reads 17.6 µM; that for `Fc1ccc(Cc2ccc3c(NCCCNCc4cccc5c4OCO5)ccnc3c2)c(Cl)c1` [SJ000311324-1], 20.6 µM.

`COc1ccc(F)cc1CNCCCNc1ccnc2cc(Cc3ccc(F)cc3Cl)ccc12` [SJ000311325-1]: the IC50 under setting [1] was 17.6 µM. Turning to `O=C1C(Cl)=C(NCCN2CCOCC2)C(=O)c2ncccc21` [SJ000312204-6], the IC50 under setting [1] came out at 2.25 µM. For the compound `Cc1ccc(S(=O)(=O)c2nc(-c3ccccc3C)oc2N2CC(C)OC(C)C2)cc1` (stereo not drawn) [SJ000329041-1], the 50% inhibitory concentration (IC50) under setting [1] came out at 11.8 µM. Take `Cc1ccc(S(=O)(=O)c2nc(-c3ccccc3Cl)oc2N2CC(C)OC(C)C2)cc1` (stereo not drawn) [SJ000329066-1]: the IC50 under setting [1] turned out to be 13 µM. Take `CC1CN(c2oc(-c3ccccc3F)nc2S(=O)(=O)c2ccc(F)cc2)CC(C)O1` (stereo not drawn) [SJ000329067-1]: the IC50 under setting [1] was 27.3 µM.

In the case of `Oc1c(F)cc(F)cc1CN(CCCCNc1ccnc2cc(Cl)ccc12)Cc1ccccc1` [SJ000357506-2, Oc1c(F)cc(F)cc1CN(CCCCNc2ccnc3cc(Cl)ccc23)Cc4ccccc4], under setting [2], the IC50 is over 70 µM. In the case of `CC(C)(C)CCN(CCCCNc1ccnc2cc(Cl)ccc12)Cc1ccccc1` [SJ000357537-2, CC(C)(C)CCN(CCCCNc1ccnc2cc(Cl)ccc12)Cc3ccccc3], the IC50 under setting [2] is over 70 µM.
